Measurements as given in patent publication US11986532B2 (Arvinas Operations, Inc., priority 2021, dated 2024).
Where two headings read alike, the source gives them in different places.

Biological target: T1, BCL6 (Homo sapiens, UniProt P41182)
T1 construct: endogenous in cells; host or cells: T47D breast cancer epithelial cells
Test: Immunofluorescence protocol for high content imaging of BCL6 (degradation) in T47D cells, 3 days compound treatment
Format: cell-based
Details: for DC50: read-out: Mean DC50 (nM)* category; for Dmax: read-out: Mean Dmax (%)** category
Summary of the method: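 T47D cells in RPMI1640-10% FBS were treated with an 11-point 3-fold dilution series (final top 0.1 or 1 μM) for 3 days at 37° C. After PFA fixation and Triton permeabilization, cells were immunostained with rabbit anti-BCL6 (1:300, overnight 4° C), Alexa-488 secondary, CellMask-647 and Hoechst, then imaged at 10×, 4 fields/well.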

[1] = T47D cells, 3 days compound treatment

Compound | DC50 [1] | Dmax [1] | DC50 | Dmax (T47D)
CNC(=O)COc1cc2cc(Nc3nc(N4CCC(CN5CC6(CCN(c7ccc8c(c7F)CN(C7CCC(=O)NC7=O)C8=O)CC6)C5)CC4)ncc3Cl)ccc2n(C(C)C)c1=O (stereo not shown) [Compound 87, 2-{[6-({5-chloro-2-[4-({7-[2-(2,6-dioxopiperidin-3-yl)-4-fluoro-1-oxo-2,3-dihydro-1H-isoindol-5-yl]-2,7-diazaspiro[3.5]nonan-2-yl}methyl)piperidin-1-yl]pyrimidin-4-yl}amino)-2-oxo-1-(propan-2-yl)-1,2-dihydroquinolin-3-yl]oxy}-N-methylacetamide] | < 10 nM | 50 to 70% |  | 
CNC(=O)COc1cc2cc(Nc3nc(N4CCC(O[C@H]5C[C@H](N6CCC(c7cc8c(cc7OC)C(=O)N(C7CCC(=O)NC7=O)C8=O)CC6)C5)CC4)ncc3Cl)ccc2n(C(C)C)c1=O (stereo partly shown) [Compound 160, 2-({6-[(5-chloro-2-{4-[(1r,3r)-3-{4-[2-(2,6-dioxopiperidin-3-yl)-6-methoxy-1,3-dioxo-2,3-dihydro-1H-isoindol-5-yl]piperidin-1-yl}cyclobutoxy]piperidin-1-yl}pyrimidin-4-yl)amino]-2-oxo-1-(propan-2-yl)-1,2-dihydroquinolin-3-yl}oxy)-N-methylacetamide] | < 10 nM | ≥ 70% |  | 
CNC(=O)COc1cc2cc(Nc3nc(N4CCC(O[C@H]5C[C@H](N6CC=C(c7ccc8c(c7)CN(C7CCC(=O)NC7=O)C8=O)CC6)C5)CC4)ncc3Cl)ccc2n(C(C)C)c1=O (stereo partly shown) [Compound 323, 2-({6-[(5-chloro-2-{4-[(1r,3r)-3-{4-[2-(2,6-dioxopiperidin-3-yl)-1-oxo-2,3-dihydro-1H-isoindol-5-yl]-1,2,3,6-tetrahydropyridin-1-yl}cyclobutoxy]piperidin-1-yl}pyrimidin-4-yl)amino]-2-oxo-1-(propan-2-yl)-1,2-dihydroquinolin-3-yl}oxy)-N-methylacetamide] |  |  | < 10 nM | 50 to 70%
CNC(=O)COc1cc2c(F)c(Nc3nc(N4CCC(O[C@H]5C[C@H](N6CCC(c7ccc8c(c7F)CN([C@H]7CCC(=O)NC7=O)C8=O)CC6)C5)CC4)ncc3Cl)ccc2n(C(C)C)c1=O [Compound 380, 2-({6-[(5-chloro-2-{4-[(1r,3r)-3-(4-{2-[(3S)-2,6-dioxopiperidin-3-yl]-4-fluoro-1-oxo-2,3-dihydro-1H-isoindol-5-yl}piperidin-1-yl)cyclobutoxy]piperidin-1-yl}pyrimidin-4-yl)amino]-5-fluoro-2-oxo-1-(propan-2-yl)-1,2-dihydroquinolin-3-yl}oxy)-N-methylacetamide] |  |  | < 10 nM | 50 to 70%
CNC(=O)COc1cc2cc(Nc3nc(N4CCC(C(C)(C)N5CC6(CCN(c7cccc8c7CN(C7CCC(=O)NC7=O)C8=O)CC6)C5)CC4)ncc3Cl)ccc2n(C(C)C)c1=O (stereo not shown) [Compound 8, 2-{[6-({5-chloro-2-[4-(2-{7-[2-(2,6-dioxopiperidin-3-yl)-1-oxo-2,3-dihydro-1H-isoindol-4-yl]-2,7-diazaspiro[3.5]nonan-2-yl}propan-2-yl)piperidin-1-yl]pyrimidin-4-yl}amino)-2-oxo-1-(propan-2-yl)-1,2-dihydroquinolin-3-yl]oxy}-N-methylacetamide] | < 10 nM | ≥ 70% |  | 
CNC(=O)COc1cc2cc(Nc3nc(N4CCC(O[C@H]5C[C@H](N6CCN(c7ccc8c(c7Cl)CN([C@H]7CCC(=O)NC7=O)C8=O)[C@H](C)C6)C5)CC4)ncc3Cl)ccc2n(C(C)C)c1=O [Compound 267, 2-({6-[(5-chloro-2-{4-[(1r,3r)-3-[(3R)-4-{4-chloro-2-[(3S)-2,6-dioxopiperidin-3-yl]-1-oxo-3H-isoindol-5-yl}-3-methylpiperazin-1-yl]cyclobutoxy]piperidin-1-yl}pyrimidin-4-yl)amino]-1-isopropyl-2-oxoquinolin-3-yl}oxy)-N-methylacetamide] |  |  | < 10 nM | 50 to 70%
CNC(=O)COc1cc2cc(Nc3nc(N4CCC(O[C@H]5C[C@H](N6CCN(c7ccc8c(c7F)CN([C@@H]7CCC(=O)NC7=O)C8=O)CC6)C5)CC4)ncc3Cl)ccc2n(C(C)C)c1=O [Compound 392, 2-({6-[(5-chloro-2-{4-[(1r,3r)-3-(4-{2-[(3R)-2,6-dioxopiperidin-3-yl]-4-fluoro-1-oxo-2,3-dihydro-1H-isoindol-5-yl}piperazin-1-yl)cyclobutoxy]piperidin-1-yl}pyrimidin-4-yl)amino]-2-oxo-1-(propan-2-yl)-1,2-dihydroquinolin-3-yl}oxy)-N-methylacetamide] |  |  | < 10 nM | ≥ 70%
CNC(=O)COc1cc2cc(Nc3nc(N4CCC(O[C@H]5C[C@H](N6CCN(c7ccc8c(c7)C(=O)N(C7CCC(=O)NC7=O)C8=O)C[C@@H]6C)C5)CC4)ncc3Cl)ccc2n(C(C)C)c1=O (stereo partly drawn) [Compound 261, 2-({6-[(5-chloro-2-{4-[(1r,3r)-3-[(2S)-4-[2-(2,6-dioxopiperidin-3-yl)-1,3-dioxo-2,3-dihydro-1H-isoindol-5-yl]-2-methylpiperazin-1-yl]cyclobutoxy]piperidin-1-yl}pyrimidin-4-yl)amino]-2-oxo-1-(propan-2-yl)-1,2-dihydroquinolin-3-yl}oxy)-N-methylacetamide] |  |  | 10 to 50 nM | 50 to 70%
CCc1c(N2CCN([C@H]3C[C@H](OC4CCN(c5ncc(Cl)c(Nc6ccc7c(c6)cc(OCC(=O)NC)c(=O)n7C(C)C)n5)CC4)C3)CC2)ccc2c1C(=O)N(C1CCC(=O)NC1=O)C2=O (stereo partly shown) [Compound 200, 2-({6-[(5-chloro-2-{4-[(1r,3r)-3-{4-[2-(2,6-dioxopiperidin-3-yl)-4-ethyl-1,3-dioxo-2,3-dihydro-1H-isoindol-5-yl]piperazin-1-yl}cyclobutoxy]piperidin-1-yl}pyrimidin-4-yl)amino]-2-oxo-1-(propan-2-yl)-1,2-dihydroquinolin-3-yl}oxy)-N-methylacetamide] | 10 to 50 nM | ≥ 70% |  | 
CNC(=O)COc1cc2cc(Nc3nc(N4CCC(C(C)(C)N5CCC6(CC5)CN(c5ccc7c(c5)C(=O)N(C5CCC(=O)NC5=O)C7=O)C6)CC4)ncc3Cl)ccc2n(C(C)C)c1=O (stereo not shown) [Compound 45] | < 10 nM | 50 to 70% |  | 

Further lines, with some results ahead:

DC50 [1] | Dmax [1] | DC50 | Compound | Dmax (T47D)
 |  | < 10 nM | CNC(=O)COc1cc2cc(Nc3nc(N4CCC(F)(CN5CCC6(CC5)CN(c5ccc7c(c5)CN(C5CCC(=O)NC5=O)C7=O)C6(C)C)CC4)ncc3Cl)ccc2n(C(C)C)c1=O (stereo not shown) [Compound 382, 2-{[6-({5-chloro-2-[4-({2-[2-(2,6-dioxopiperidin-3-yl)-1-oxo-2,3-dihydro-1H-isoindol-5-yl]-1,1-dimethyl-2,7-diazaspiro[3.5]nonan-7-yl}methyl)-4-fluoropiperidin-1-yl]pyrimidin-4-yl}amino)-2-oxo-1-(propan-2-yl)-1,2-dihydroquinolin-3-yl]oxy}-N-methylacetamide] | ≥ 70%
 |  | 10 to 50 nM | CNC(=O)COc1cc2cc(Nc3nc(N4CCN(CC5CCC6(CC5)CN(c5ccc7c(c5OC)CN(C5CCC(=O)NC5=O)C7=O)C6)CC4)ncc3Cl)ccc2n(C(C)C)c1=O (stereo not shown) [Compound 331, 2-{[6-({5-chloro-2-[4-({2-[2-(2,6-dioxopiperidin-3-yl)-4-methoxy-1-oxo-2,3-dihydro-1H-isoindol-5-yl]-2-azaspiro[3.5]nonan-7-yl}methyl)piperazin-1-yl]pyrimidin-4-yl}amino)-2-oxo-1-(propan-2-yl)-1,2-dihydroquinolin-3-yl]oxy}-N-methylacetamide] | 50 to 70%
 |  | < 10 nM | CNC(=O)COc1cc2cc(Nc3nc(N4CCN(CC5CCC6(CC5)CN(c5ccc7c(c5)CN(C5CCC(=O)NC5=O)C7=O)C6)CC4)ncc3Cl)ccc2n(C(C)C)c1=O (stereo not shown) [Compound 305, 2-{[6-({5-chloro-2-[4-({2-[2-(2,6-dioxopiperidin-3-yl)-1-oxo-2,3-dihydro-1H-isoindol-5-yl]-2-azaspiro[3.5]nonan-7-yl}methyl)piperazin-1-yl]pyrimidin-4-yl}amino)-2-oxo-1-(propan-2-yl)-1,2-dihydroquinolin-3-yl]oxy}-N-methylacetamide] | 50 to 70%
 |  | < 10 nM | CNC(=O)COc1cc2cc(Nc3nc(N4CCC(OC5CCC6(CC5)CN(c5c(F)ccc7c5CN(C5CCC(=O)NC5=O)C7=O)C6)CC4)ncc3Cl)ccc2n(C(C)C)c1=O (stereo not shown) [Compound 298, 2-{[6-({5-chloro-2-[4-({2-[2-(2,6-dioxopiperidin-3-yl)-5-fluoro-1-oxo-2,3-dihydro-1H-isoindol-4-yl]-2-azaspiro[3.5]nonan-7-yl}oxy)piperidin-1-yl]pyrimidin-4-yl}amino)-2-oxo-1-(propan-2-yl)-1,2-dihydroquinolin-3-yl]oxy}-N-methylacetamide] | 50 to 70%
 |  | < 10 nM | CNC(=O)COc1cc2cc(Nc3nc(N4CCC(CN5[C@@H](C)CC6(C[C@@H]5C)CN(c5ccc7c(c5)C(=O)N(C5CCC(=O)NC5=O)C7=O)C6)CC4)ncc3Cl)ccc2n(C(C)C)c1=O (stereo partly drawn) [Compound 255, 2-[(6-{[5-chloro-2-(4-{[(6S,8S)-2-[2-(2,6-dioxopiperidin-3-yl)-1,3-dioxo-2,3-dihydro-1H-isoindol-5-yl]-6,8-dimethyl-2,7-diazaspiro[3.5]nonan-7-yl]methyl}piperidin-1-yl)pyrimidin-4-yl]amino}-2-oxo-1-(propan-2-yl)-1,2-dihydroquinolin-3-yl)oxy]-N-methylacetamide] | 50 to 70%
 |  | 10 to 50 nM | CNC(=O)COc1cc2cc(Nc3nc(N4CCC(CN5CCC6(CC5)CN(c5ccc7c(c5OC)CN(C5CCC(=O)NC5=O)C7=O)C6(C)C)CC4)ncc3Cl)ccc2n(C(C)C)c1=O (stereo not shown) [Compound 340, 2-{[6-({5-chloro-2-[4-({2-[2-(2,6-dioxopiperidin-3-yl)-4-methoxy-1-oxo-2,3-dihydro-1H-isoindol-5-yl]-1,1-dimethyl-2,7-diazaspiro [3.5]nonan-7-yl}methyl)piperidin-1-yl]pyrimidin-4-yl}amino)-2-oxo-1-(propan-2-yl)-1,2-dihydroquinolin-3-yl]oxy}-N-methylacetamide] | 
